The record followed here is ChEMBL document CHEMBL4342437, “Development and structure-activity relationship study of SHP2 inhibitor containing 3,4,6-trihydroxy-5-oxo-5H-benzo[7]annulene” (Bioorg Med Chem Lett, 2020).

In general, inhibition refers to the drop in the measured response relative to a control, in per cent. The term IC50 denotes the midpoint of a concentration-inhibition curve.

Active and inactive are the calls of the source. The calls are words filed in the database; no cut-off is given here.

In assay [1] the target is T1, Tyrosine-protein phosphatase non-receptor type 11 (Homo sapiens) (UniProt Q06124).
T1 sequence (whole entry): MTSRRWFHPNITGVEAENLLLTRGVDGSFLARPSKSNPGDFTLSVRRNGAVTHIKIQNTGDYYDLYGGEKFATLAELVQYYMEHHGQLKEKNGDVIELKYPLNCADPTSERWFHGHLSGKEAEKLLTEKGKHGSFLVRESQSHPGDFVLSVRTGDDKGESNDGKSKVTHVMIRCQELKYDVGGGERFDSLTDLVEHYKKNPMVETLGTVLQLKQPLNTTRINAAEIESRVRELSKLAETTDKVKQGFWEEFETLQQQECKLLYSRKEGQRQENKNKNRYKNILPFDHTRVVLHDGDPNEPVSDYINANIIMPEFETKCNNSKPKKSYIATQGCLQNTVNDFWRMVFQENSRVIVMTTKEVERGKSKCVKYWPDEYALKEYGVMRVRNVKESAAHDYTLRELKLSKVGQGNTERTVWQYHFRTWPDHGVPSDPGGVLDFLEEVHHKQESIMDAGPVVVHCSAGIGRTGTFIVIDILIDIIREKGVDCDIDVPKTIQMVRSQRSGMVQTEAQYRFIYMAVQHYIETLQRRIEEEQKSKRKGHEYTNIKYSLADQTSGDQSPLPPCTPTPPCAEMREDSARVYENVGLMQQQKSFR
Description: Inhibition of recombinant human SHP2 expressed in Escherichia coli using 2P-IRS1 peptide as substrate at 1 uM after 1 hr by microplate reader analysis relative to control.

Assay [2] deals with T2, Tyrosine-protein phosphatase non-receptor type 11 (Homo sapiens, UniProt Q06124).
T2 sequence (Q06124 whole entry): T1 sequence (whole entry)
Description: Inhibition of recombinant human SHP2 expressed in Escherichia coli using 2P-IRS1 peptide as substrate after 1 hr by microplate reader analysis.

In assay [3] the test system is MDA-MB-468. Put plainly: Antiproliferative activity against human MDA-MB-468 cells assessed as reduction in cell viability after 2 to 4 days by CCK-8 assay. It counts as functional, cell-based. A general note: Tetrazolium dyes change colour on reduction, which living cells bring about.
Assay [4] relates to MDA-MB-468. Description: Antiproliferative activity against human MDA-MB-468 3D spheroids assessed as reduction in cell viability after 2 to 4 days by CCK-8 assay. It counts as functional, cell-based.
Assay [5] concerns MDA-MB-468. Put plainly: Antiproliferative activity against SHP2 knockout human MDA-MB-468 cells with assessed as increase in cell viability at 100 uM after 2 to 4 days by CCK-8 assay relative to MDA-MB-468 cells expressing SHP2. The assay is classed as functional.
In assay [6] the test system is MDA-MB-468. Put plainly: Antiproliferative activity against human MDA-MB-468 3D spheroids assessed as reduction in cell viability at 20 uM after 2 to 4 days by CCK-8 assay relative to control. It counts as functional.
For assay [7], the system named is MDA-MB-468. Description: Potency index, ratio of SHP099 IC50 to compound IC50 for antiproliferative activity against human MDA-MB-468 cells after 2 to 4 days by CCK-8 assay. It counts as functional.
Assay [8] concerns the target T1, Tyrosine-protein phosphatase non-receptor type 11 (Homo sapiens). Description: Non-competitive inhibition of recombinant human SHP2 expressed in Escherichia coli using 2P-IRS1 peptide as substrate up to 200 uM after 1 hr by Lineweaver-Burk plot analysis.

`COc1ccc2cc(C(=O)O)cc(OC)c(=O)c2c1OC`: the inhibition in assay [1] is 0%.

On to `CCOC(=O)c1cc(O)c(=O)c2c(O)c(O)c(F)cc2c1`, for which, in assay [1], the inhibition came out at 19%. Further, the IC50 in assay [2] came to 6.54 µM.

For `NC(=O)c1cc(O)c(=O)c2c(O)c(O)ccc2c1`, the inhibition in assay [1] was 13%. In assay [2], the IC50 was 4.11 µM.

As to `CC1(N)CCN(c2cnc(-c3cccc(Cl)c3Cl)c(N)n2)CC1`, the IC50 stood at 29.9 µM in the assay on MDA-MB-468 [3] and 49.6 µM with MDA-MB-468 [4].

On to `O=c1c(O)cccc2ccc(O)c(O)c12`, for which the inhibition in assay [1] turned out to be 0%.

Regarding `O=C(O)c1cc(O)c(=O)c2c(O)c(O)c(F)cc2c1`, the “fold change (FC)” value in the assay with MDA-MB-468 [5] turned out to be 16.3. Besides, in assay [1], the inhibition is 90%. In addition, the Activity in the assay with MDA-MB-468 [6] stood at 37.2%. Further, the figures for the IC50 (with MDA-MB-468 [3]; with MDA-MB-468 [4]; in assay [2]) were 71 µM, 39.2 µM and 0.277 µM, respectively.

Regarding `O=c1c(O)cc(-c2nc(CCl)co2)cc2ccc(O)c(O)c12`, the inhibition in assay [1] amounted to 29%. The IC50 in assay [2] came to 1.57 µM.

Turning to `COC(=O)c1cc(OC)c(=O)c2c(OC)c(OC)ccc2c1`, in assay [1], the inhibition was 0%.

For `NC(=O)c1cc(O)c(=O)c2c(O)c(O)c(F)cc2c1`, the inhibition in assay [1] worked out at 52%. Also, in assay [2], the IC50 was determined as 0.949 µM.

Take `O=C(O)c1cc(O)c(=O)c2c(O)c(O)ccc2c1` [7-DESHYDROXYPYROGALLIN-4-CARBOXYLIC ACID]: the “fold change (FC)” value with MDA-MB-468 [5] stood at 19.3. In addition, the Ratio IC50 in the assay with MDA-MB-468 [7] turned out to be 5.6. Further, the inhibition in assay [1] worked out at 93%. The Activity in the assay with MDA-MB-468 [6] is reported as 35.7%. The IC50 in the assay with MDA-MB-468 [3] came out at 5.3 µM; in the assay with MDA-MB-468 [4], 35.8 µM; in assay [2] it was 0.097 µM. Moreover, the inhibition result in assay [8] is “Active”.

On to `COc1cc2cc(C(N)=O)cc(O)c(=O)c2c(O)c1O`, for which the inhibition in assay [1] was 0%.

For `N#Cc1cc(O)c(=O)c2c(O)c(O)ccc2c1`, the inhibition in assay [1] turned out to be 40%. In addition, the IC50 in assay [2] was 1.23 µM.

As for `COC(=O)c1cc(O)c(=O)c2c(O)c(O)ccc2c1` [METHYL 7-DESHYDROXYPYROGALLIN-4-CARBOXYLATE], in the assay on MDA-MB-468 [5], the “fold change (FC)” value was found to be 3. Moreover, the inhibition in assay [1] came out at 87%. Besides, the Activity with MDA-MB-468 [6] is listed as 27.5%. The IC50 was 4.6 µM with MDA-MB-468 [3], 62.9 µM with MDA-MB-468 [4] and 0.161 µM in assay [2].

On to `CC(C)OC(=O)c1cc(O)c(=O)c2c(O)c(O)c(F)cc2c1`, for which the inhibition in assay [1] is 0.47%. Also, the IC50 in assay [2] stood at 7.74 µM.

In the case of `CCOC(=O)c1cc(O)c(=O)c2c(O)c(O)ccc2c1`, the inhibition in assay [1] was 50%. For the same molecule, the IC50 in assay [2] was 0.985 µM.

`COC(=O)c1cc(O)c(=O)c2c(O)c(O)c(F)cc2c1`: the inhibition in assay [1] amounted to 12%. Also, the IC50 in assay [2] stood at 7.55 µM.

For the molecule `CC(C)OC(=O)c1cc(O)c(=O)c2c(O)c(O)ccc2c1`, in assay [1], the inhibition amounted to 2%. In assay [2], the IC50 stood at 4.87 µM.

Turning to `COC(=O)c1cc(O)c(=O)c2c(O)c(O)c(OC)cc2c1`, the inhibition in assay [1] came out at 6%. Further, in assay [2], the IC50 came out at 8.66 µM.
